Measurements reported in patent US20160130278A1 (TAISHO PHARMACEUTICAL CO., LTD, priority 2013, published 2016).
pIC50: −log10 of the molar value.

These compounds were tested against T1, human type 1 glycine transporter (GlyT1) (Homo sapiens, UniProt P48067) (assay: Glycine uptake inhibition experiment ([3H]glycine uptake)). Settings: GlyT1.
T1 construct: T98G cells (glioma cells) expressing human type 1 glycine transporter (GlyT1) were used
T1 sequence (P48067 1-706): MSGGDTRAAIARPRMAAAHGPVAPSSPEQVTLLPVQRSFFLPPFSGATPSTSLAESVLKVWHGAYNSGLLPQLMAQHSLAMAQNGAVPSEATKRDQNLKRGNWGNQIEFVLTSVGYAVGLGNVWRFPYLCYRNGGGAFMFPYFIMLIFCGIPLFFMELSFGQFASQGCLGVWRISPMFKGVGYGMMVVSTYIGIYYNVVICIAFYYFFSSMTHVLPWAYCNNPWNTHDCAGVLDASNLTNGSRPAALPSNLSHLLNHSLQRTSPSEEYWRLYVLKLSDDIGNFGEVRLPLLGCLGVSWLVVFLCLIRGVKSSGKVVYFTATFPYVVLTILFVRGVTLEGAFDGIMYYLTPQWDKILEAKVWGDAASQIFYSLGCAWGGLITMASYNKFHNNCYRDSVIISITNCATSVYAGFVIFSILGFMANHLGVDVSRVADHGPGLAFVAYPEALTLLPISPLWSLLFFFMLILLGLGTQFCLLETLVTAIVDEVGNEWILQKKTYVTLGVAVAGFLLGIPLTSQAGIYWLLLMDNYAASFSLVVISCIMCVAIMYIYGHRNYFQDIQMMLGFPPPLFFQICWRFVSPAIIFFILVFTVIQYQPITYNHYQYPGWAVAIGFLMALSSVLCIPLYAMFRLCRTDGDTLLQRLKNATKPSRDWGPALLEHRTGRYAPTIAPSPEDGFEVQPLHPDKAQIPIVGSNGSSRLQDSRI
Assay type: cell-based
Procedure, shortened: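 T98G glioma cells expressing human GlyT1 were pretreated 10 min with compound in HEPES buffer pH 7.4 (0.2% BSA), then incubated with compound plus 250 nM final [3H]glycine for 15 min at room temperature. Intracellular radioactivity was counted after NaOH lysis; 10 μM ALX5407 defined non-specific uptake. IC50 came from 10^−9–10^−5 M curves.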

| pIC50 | Compound |
| --- | --- |
| 6.46 | O=C(NC(c1ccccc1)[C@]1(O)CC[C@@H](F)CC1)c1nccc(C(F)(F)F)c1Cl (stereo partly drawn) [Compound 158, 3-chloro-N-[(cis-4-fluoro-1-hydroxycyclohexyl)(phenyl)methyl]-4-(trifluoromethyl)pyridine-2-carboxamide] |
| 6.89 | O=C(N[C@@H](c1cccc(-c2ncccn2)c1)C1(O)CCCC1)c1nccc(C(F)(F)F)c1Cl [Compound 36, 3-chloro-N-{(S)-(1-hydroxycyclopentyl)[3-(pyrimidin-2-yl)phenyl]methyl}-4-(trifluoromethyl)pyridine-2-carboxamide] |
| 5.24 | O=C(NC(c1cccc(F)c1Cl)[C@]1(O)CC[C@@H](F)CC1)c1ncc(Cl)cc1C(F)(F)F (single isomer, unassigned) [Compound 316, 5-chloro-N-[(2-chloro-3-fluorophenyl)(cis-4-fluoro-1-hydroxycyclohexyl)methyl]-3-(trifluoromethyl)pyridine-2-carboxamide] |
| 6.70 | O=C(NC(c1ccccc1F)C1(O)CCCC1)c1nccc(C(F)(F)F)c1Cl (single isomer, unassigned) [Compound 60, 3-chloro-N-[(2-fluorophenyl)(1-hydroxycyclopentyl)methyl]-4-(trifluoromethyl)pyridine-2-carboxamide] |
| 7.05 | O=C(NC(c1cccc(Cl)c1)C1(O)CCCC1)c1nccc(C(F)(F)F)c1Cl (centres unmarked) [Compound 45, 3-chloro-N-[(3-chlorophenyl)(1-hydroxycyclopentyl)methyl]-4-(trifluoromethyl)pyridine-2-carboxamide] |
| 5.82 | CCn1cc(-c2cccc(C(NC(=O)c3cccc(C(F)(F)F)c3F)C3(O)CCC(F)(F)CC3)c2)cn1 (centres unmarked) [Compound 181, N-[(4,4-difluoro-1-hydroxycyclohexyl)[3-(1-ethyl-1H-pyrazol-4-yl)phenyl]methyl}-2-fluoro-3-(trifluoromethyl)benzamide] |
| 5.92 | O=C(NC(c1cccnc1Cl)C1(O)CCC(F)(F)CC1)c1cc(C(F)(F)F)ncc1Cl (single isomer, unassigned) [Compound 342, 5-chloro-N-[(2-chloropyridin-3-yl)(4,4-difluoro-1-hydroxycyclohexyl)methyl]-2-(trifluoromethyl)pyridine-4-carboxamide] |
| 6.07 | CCn1cc(-c2cccc(C(NC(=O)c3ccc(C(F)(F)F)cc3C)C3(O)CCC(F)(F)CC3)c2)cn1 (centres unmarked) [Compound 184, N-{(4,4-difluoro-1-hydroxycyclohexyl)[3-(1-ethyl-1H-pyrazol-4-yl)phenyl]methyl}2-methyl-4-(trifluoromethyl)benzamide] |
| 6.89 | O=C(NC(c1cccc(Cl)n1)C1(O)CCC(F)(F)CC1)c1nccc2ccccc12 (single isomer, unassigned) [Compound 355, N-[(6-chloropyridin-2-yl)(4,4-difluoro-1-hydroxycyclohexyl)methyl]isoquinoline-1-carboxamide] |
| 6.55 | CCn1cc(-c2cccc(C(NC(=O)c3c(Cl)ccc(C(F)(F)F)c3Cl)C3(O)CCC(F)(F)CC3)c2)cn1 (centres unmarked) [Compound 123, 2,6-dichloro-N-{(4,4-difluoro-1-hydroxycyclohexyl)[3-(1-ethyl-1H-pyrazol-4-yl)phenyl]methyl}-3-(trifluoromethyl)benzamide] |
| 5.80 | O=C(NC(c1cccc(F)c1Cl)[C@]1(O)CC[C@@H](F)CC1)c1cccc2ccncc12 (single isomer, unassigned) [Compound 275, N-[(2-chloro-3-fluorophenyl)(cis-4-fluoro-1-hydroxycyclohexyl)methyl]isoquinoline-8-carboxamide] |
| 7.14 | CCn1cc(-c2cccc(C(NC(=O)c3nccc(C(F)(F)F)c3Cl)C3(O)CCC(F)(F)CC3)c2)cn1 (centres unmarked) [Compound 86, 3-chloro-N-{(4,4-difluroo-1-hydroxycyclohexyl)[3-(1-ethyl-1H-pyrazol-4-yl)phenyl]methyl}-4-(trifluoromethyl)pyridine-2-carboxamide] |
| 7.44 | CS(=O)(=O)c1ncc(C(F)(F)F)cc1C(=O)NC(c1cccc(F)c1Cl)[C@]1(O)CC[C@@H](F)CC1 (single isomer, unassigned) [Compound 387, N-[(2-chloro-3-fluorophenyl)(cis-4-fluoro-1-hydroxycyclohexyl)methyl]-2-(methylsulfonyl)-5-(trifluoromethyl)pyridine-3-carboxamide] |
| 6.89 | O=C(NC(c1cccc(Cl)c1F)C1(O)CCC(F)CC1)c1ccnc(C(F)(F)F)c1Cl (single isomer, unassigned) [Compound 201, 3-chloro-N-[(3-chloro-2-fluorophenyl)(4-fluoro-1-hydroxycyclohexyl)methyl]-2-(trifluoromethyl)pyridine-4-carboxamide] |
| 6.59 | CCn1cc(-c2cccc(C(NC(=O)c3cccc(C(F)(F)F)c3Cl)C3(O)CCC(F)(F)CC3)c2)cn1 (centres unmarked) [Compound 118, 2-chloro-N-{(4,4-difluoro-1-hydroxycyclohexyl)[3-(1-ethyl-1H-pyraozl-4-yl)phenyl]methyl}-3-(trifluoromethyl)benzamide] |
| 7.00 | O=C(NC(c1cccc(F)c1Cl)C1(O)CCC(F)(F)CC1)c1nccc(C(F)(F)F)c1Cl (single isomer, unassigned) [Compound 177, 3-chloro-N-[(2-chloro-3-fluorophenyl)(4,4-difluoro-1-hydroxycyclohexyl)methyl]-4-(trifluoromethyl)pyridine-2-carboxamide] |
| 7.09 | O=C(NC(c1cccc(Cl)c1F)C1(O)CCC(F)CC1)c1nccc(C(F)(F)F)c1Cl (single isomer, unassigned) [Compound 199, 3-chloro-N-[(3-chloro-2-fluorophenyl)(4-fluoro-1-hydroxycyclohexyl)methyl]-4-(trifluoromethyl)pyridine-2-carboxamide] |
| 5.80 | CN(C)C(=O)c1cccc(C(NC(=O)c2nccc(C(F)(F)F)c2Cl)C2(O)CCCC2)c1 (centres unmarked) [Compound 105, 3-chloro-N-{[3-(dimethylcarbamoyl)phenyl](1-hydroxycyclopentyl)methyl}-4-(trifluoromethyl)pyridine-2-carboxamide] |
| 6.35 | O=C(NC(c1cccc(-n2ccnn2)c1)C1(O)CCCC1)c1nccc(C(F)(F)F)c1Cl (centres unmarked) [Compound 78, 3-chloro-N-{(1-hydroxycyclopentyl)[3-(1H-1,2,3-triazol-1-yl)phenyl]methyl}-4-(trifluoromethyl)pyridine-2-carboxamide] |
| 6.57 | Cc1c(Cl)ccnc1C(=O)NC(c1cccc(F)c1Cl)[C@]1(O)CC[C@@H](F)CC1 (single isomer, unassigned) [Compound 224, 4-chloro-N-[(2-chloro-3-fluorophenyl)(cis-4-fluoro-1-hydroxycyclohexyl)methyl]-3-methylpyridine-2-carboxamide] |
| 6.82 | O=C(NC(c1cccc(F)c1Cl)[C@]1(O)CC[C@@H](F)CC1)c1cc(C(F)(F)F)cnc1Cl (single isomer, unassigned) [Compound 317, 2-chloro-N-[(2-chloro-3-fluorophenyl)(cis-4-fluoro-1-hydroxycyclohexyl)methyl]-5-(trifluoromethyl)pyridine-3-carboxamide] |
| 6.13 | CN(C(=O)c1nccc(C(F)(F)F)c1Cl)C(c1cccc(F)c1Cl)[C@]1(O)CC[C@@H](F)CC1 (single isomer, unassigned) [Compound 382, 3-chloro-N-[(2-chloro-3-fluorophenyl)(cis-4-fluoro-1-hydroxycyclohexyl)methyl]-N-methyl-4-(trifluoromethyl)pyridine-2-carboxamide] |
| 5.70 | O=C(NC(c1cccc(F)c1Cl)[C@]1(O)CC[C@@H](F)CC1)c1ccc(Cl)cc1-n1nccn1 (single isomer, unassigned) [Compound 285, 4-chloro-N-[(2-chloro-3-fluorophenyl)(cis-4-fluoro-1-hydroxycyclohexyl)methyl]-2-(2H-1,2,3-triazol-2-yl)benzamide] |
| 6.42 | O=C(NC(c1ccccc1Cl)[C@]1(O)CC[C@@H](F)CC1)c1cc(C(F)(F)F)cnc1Cl (single isomer, unassigned) [Compound 367, 2-chloro-N-[(2-chlorophenyl)(cis-4-fluoro-1-hydroxycyclohexyl)methyl]-5-(trifluoromethyl)pyridine-3-carboxamide] |
| 5.77 | O=C(NC(c1ccc(Cl)cc1)C1(O)CCCC1)c1nccc(C(F)(F)F)c1Cl (centres unmarked) [Compound 46, 3-chloro-N-[(4-chlorophenyl)(1-hydroxycyclopentyl)methyl]-4-(trifluoromethyl)pyridine-2-carboxamide] |

Same assay, conditions: human GlyT1

| pIC50 | Compound |
| --- | --- |
| 6.92 | CS(=O)(=O)c1cnc(C(F)(F)F)cc1C(=O)NC(c1ccccc1Cl)C1(O)CCC(F)(F)CC1 (single isomer, unassigned) [Compound 403, N-[(2-chlorophenyl)(4,4-difluoro-1-hydroxycyclohexyl)methyl]-5-(methylsulfonyl)-2-(trifluoromethyl)pyridine-4-carboxamide] |
